melting point | Structure (SMILES)
151 to 154 °C | Cc1cc(C)cc(-c2nc(-c3ccc([S+](C)[O-])cc3)sc2-c2cc(C)nc(C)c2)c1 (stereo not shown) [Example Compound 56-2, 4-(3,5-dimethylphenyl)-5-(2,6-dimethyl-4-pyridyl)-2-(4-methylsulfinylphenyl)-1,3-thiazole]
119 to 120 °C | CCCC(=O)Nc1cc(-c2sc(CC)nc2-c2cccc(Cl)c2)ccn1 [Example 86, N-[4-[4-(3-chlorophenyl)-2-ethyl-1,3-thiazol-5-yl]-2-pyridyl]butyramide]
131 to 132 °C | CC(F)(F)c1nc(-c2cccc(Cl)c2)c(-c2ccnc(N)c2)s1
247 to 250 °C | COc1ccc(-c2nc(NC(C)=O)sc2-c2ccnc(N)c2)cc1 [Example Compound 50, N-[5-(2-amino-4-pyridyl)-4-(4-methoxyphenyl)-1,3-thiazol-2-yl]acetamide]
119 to 120 °C | CSc1ccc(-c2nc(-c3cccc(Cl)c3)c(-c3ccnc(NC(=O)C(C)(C)C)c3)s2)cc1 [Example Compound 30-12, N-[4-[4-(3-chlorophenyl)-2-[4-(methylthio)phenyl]-1,3-thiazol-5-yl]-2-pyridyl]pivalamide]
103 to 104 °C | CCCc1nc(-c2cccc(Cl)c2)c(-c2ccnc(NC(=O)CC)c2)s1 [Example Compound 30-9, N-[4-[4-(3-chlorophenyl)-2-propyl-1,3-thiazol-5-yl]-2-pyridyl]propionamide]
271 to 273 °C | Cc1cc(C)cc(-c2nc(NC(=O)c3ccc(Cl)nc3)sc2-c2ccnc(C)c2)c1 [Example Compound 44-3, 6-chloro-N-[4-(3,5-dimethylphenyl)-5-(2-methyl-4-pyridyl)-1,3-thiazol-2-yl]nicotinamide]
242 to 244 °C | COc1ccc(C(=O)Nc2nc(-c3cc(C)cc(C)c3)c(-c3ccnc(C)c3)s2)cn1 [Example Compound 48-3, N-[4-(3,5-dimethylphenyl)-5-(2-methyl-4-pyridyl)-1,3-thiazol-2-yl]-6-methoxynicotinamide]
97 to 98 °C | CCOC(=O)c1nc(-c2cccc(C)c2)c(-c2ccnc(C)c2)s1 [Example Compound 14-12, Ethyl [4-(3-methylphenyl)-5-(2-methyl-4-pyridyl)-1,3-thiazol-2-yl]carboxylate]
119 to 120 °C | CCc1nc(-c2ccc(SC)cc2)c(-c2ccnc(N)c2)s1 [Example Compound 20-5, 4-[2-ethyl-4-[4-(methylthio)phenyl]-1,3-thiazol-5-yl]-2-pyridylamine]
233 to 234 °C | Cc1cccc(-c2nc(NC(=O)c3ccc(C)nc3)sc2-c2ccnc(C)c2)c1 [Example Compound 45, 6-methyl-N-[4-(3-methylphenyl)-5-(2-methyl-4-pyridyl)-1,3-thiazol-2-yl]nicotinamide]
91 to 92 °C | CCC(=O)Nc1cc(-c2sc(CCSC)nc2-c2cccc(Cl)c2)ccn1 [Example 102-2, N-[4-[4-(3-chlorophenyl)-2-[2-(methylthio)ethyl]-1,3-thiazol-5-yl]-2-pyridyl]propionamide]
124 to 125 °C | CCCc1cccc(-c2nc(CC)sc2-c2ccnc(NC(=O)CC)c2)c1 [Example 84-8, N-[4-[2-ethyl-4-(3-propylphenyl)-1,3-thiazol-5-yl]-2-pyridyl]propionamide]
102 to 103 °C | CCC(=O)Nc1cc(-c2sc(C(C)OC(=O)c3ccccc3)nc2-c2cccc(C)c2)ccn1 (stereo not shown) [Example 102-5, 1-[4-(3-methylphenyl)-5-(2-propionylamino-4-pyridyl)-1,3-thiazol-2-yl]ethyl benzoate]
122 to 123 °C | CC(C)(C)C(=O)Nc1cc(-c2sc(-c3ccc(S(C)(=O)=O)cc3)nc2-c2cccc(Cl)c2)ccn1 [Example Compound 58-8, N-[4-[4-(3-chlorophenyl)-2-(4-methylsulfonylphenyl)-1,3-thiazol-5-yl]-2-pyridyl]pivalamide]
110 to 111 °C | CCc1nc(-c2cccc(Cl)c2)c(-c2ccnc(NC3CCCC3)c2)s1 [Example Compound 36-11, 4-[4-(3-chlorophenyl)-2-ethyl-1,3-thiazol-5-yl]-N-cyclopentyl-2-pyridylamine]
222 to 223 °C | CC(=O)Nc1cc(-c2sc(-c3ccc(S(C)(=O)=O)cc3)nc2-c2cccc(C)c2)ccn1 [Example 98-1, N-[4-[4-(3-methylphenyl)-2-(4-methylsulfonylphenyl)-1,3-thiazol-5-yl]-2-pyridyl]acetamide]
132 to 133 °C | CCc1nc(-c2cccc(Cl)c2)c(-c2ccnc(N)c2)s1 [Example Compound 20-1, 4-[2-ethyl-4-(3-chlorophenyl)-1,3-thiazol-5-yl]-2-pyridylamine]
190 to 191 °C | CCc1nc(-c2ccc(Cl)cc2)c(-c2ccnc(NC(C)=O)c2)s1 [Example 82-6, N-[4-[4-(4-chlorophenyl)-2-ethyl-1,3-thiazol-5-yl]-2-pyridyl]acetamide]
85 to 86 °C | CCc1nc(-c2cccc(C)c2)c(-c2ccnc(NC(=O)CC3CCCC3)c2)s1 [Example 89, N-[4-[2-ethyl-4-(3-methylphenyl)-1,3-thiazol-5-yl]-2-pyridyl]cyclopentylacetamide]
117 to 118 °C | CCc1nc(-c2cccc(C(F)(F)F)c2)c(-c2ccnc(N)c2)s1 [Example Compound 20-4, 4-[2-ethyl-4-[3-(trifluoromethyl)phenyl]-1,3-thiazol-5-yl]-2-pyridylamine]
224 to 226 °C | COc1ccc(C(=O)Nc2nc(-c3cccc(C)c3)c(-c3ccnc(C)c3)s2)cn1 [Example Compound 47, 6-methoxy-N-[4-(3-methylphenyl)-5-(2-methyl-4-pyridyl)-1,3-thiazol-2-yl]nicotinamide]
236 to 237 °C | CC(=O)Nc1nc(-c2cc(C)cc(C)c2)c(-c2ccnc(C)c2)s1 [Example Compound 40-1, N-[4-(3,5-dimethylphenyl)-5-(2-methyl-4-pyridyl)-1,3-thiazol-2-yl]acetamide]
141 to 142 °C | CCc1nc(-c2cccc(F)c2)c(-c2ccnc(NC(C)=O)c2)s1 [Example 82-5, N-[4-[2-ethyl-4-(3-fluorophenyl)-1,3-thiazol-5-yl]-2-pyridyl]acetamide]
97 to 100 °C | CSc1ccc(-c2nc(-c3cccc(C)c3)c(-c3ccnc(F)c3)s2)cc1 [Example Compound 15, 5-(2-fluoro-4-pyridyl)-4-(3-methylphenyl)-2-[4-(methylthio)phenyl]-1,3-thiazole]
152 to 153 °C | CCC(=O)Nc1cc(-c2sc(CC)nc2-c2ccc(Cl)cc2)ccn1 [Example 84-6, N-[4-[4-(4-chlorophenyl)-2-ethyl-1,3-thiazol-5-yl]-2-pyridyl]propionamide]
72 to 74 °C | CCCc1cccc(-c2nc(CC)sc2-c2ccnc(N)c2)c1 [Example Compound 20-11, 4-[2-ethyl-4-(3-propylphenyl)-1,3-thiazol-5-yl]-2-pyridylamine]
171 to 172 °C | Cc1cccc(-c2nc(N(C)C(=O)c3ccc(Cl)nc3)sc2-c2ccnc(NC3CCCCC3)c2)c1 [Example Compound 44-4, 6-chloro-N-[5-(2-cyclohexylamino-4-pyridyl)-4-(3-methylphenyl)-1,3-thiazol-2-yl]-N-methylnicotinamide]
